Calls of active or inactive are those of the source. The calls are words filed in the database; no cut-off is given here.

Usually IC50 stands for the concentration at which inhibition is half-maximal. Read a high IC50 as a need for much substance.

The subject of assay [1] is KB. In words: Cytotoxicity against human KB cells. It counts as functional, cell-based.
A short description of assay [2]: Inhibition of tubulin microtubule disassembly.

As for `CC(C)CC[C@H](C[C@]12C[C@H](CCC(C)C)C(C)(C)[C@](CCC(C)C)(C(=O)C(C(=O)c3ccc(O)c(O)c3)=C1O)C2=O)C(C)C` [OCTAHYDROXANTHOCHYMOL], the IC50 in assay [1] was 20 µM. In addition, in assay [2], the result was inactive.

Turning to `CC(=O)O[C@H]1C(=O)[C@@]2(C)[C@H]([C@H](OC(=O)c3ccccc3)[C@]3(O)C[C@H](OC(=O)[C@H](O)[C@@H](NC(=O)c4ccccc4)c4ccccc4)C(C)=C1C3(C)C)[C@]1(OC(C)=O)CO[C@@H]1C[C@@H]2O` [PACLITAXEL], the IC50 in assay [2] came to 0.5 µM.

The values above are taken from ChEMBL document CHEMBL1155563, “Structure-activity relationship of polyisoprenyl benzophenones from Garcinia pyrifera on the tubulin/microtubule system” (J Nat Prod, 2000).
